The record followed here is patent US7825151B2, “Hexahydro-cyclooctyl pyrazole cannabinoid modulators” (priority 2005, dated 2010).

Structures are written as SMILES. Several values for one entry are separate records, joined by “and”; a condition that tells them apart may be missing. Identical values can stand only once.

Assay [1] concerns the target T1, human CB1 receptor (Homo sapiens, UniProt P21554).
T1 construct: expressed in transfected cells; host or cells: SK-N-MC cells, stably transfected with pcDNA3 CB-1 (human)
Briefly: Binding assay for CB1 ([3H]-CP-55,940 displacement, SK-N-MC membranes). To be noted: for inhibition at 10 µM: test concentration 10 μM (footnote 1); for IC50: Cannabinoid CB1 Receptor Binding IC50, radioligand CP-55,940 0.2 nM, SK-N-MC membranes. The method, then: (§1) The human CB1 and CB2 receptors were stably expressed in SK-N-MC cells transfected with pcDNA3 CB-1 (human) or pcDNA3 CB-2 (human). The cells were grown in T-180 cell culture flasks under standard cell culture conditions at 37° C. in a 5% CO2 atmosphere. The cells were harvested by trysinization and homogenized in a homogenization buffer (10 mM Tris, 0.2 mM MgCl2, 5 mM KCl, with protease inhibitors aprotinin, leupeptin, pepstatin A and bacitracin) and centrifuged (2000 g). The supernatant was then centrifuged in 2M sucrose (31,300 g) to produce a semi-purified membrane pellet. The pellet was resuspended in homogenization and stored at −80° C.
(§2) On the day of the assay, the pellet was thawed on ice and diluted in assay buffer (50 mM Tris-HCl, 5 mM MgCl2, 2.5 mM EDTA, 0.5 mg/mL fatty acid free bovine serum albumin, pH 7.5). The diluted membrane pellet was added with buffer, either a test compound or vehicle standard and the radioligand [H]^3+-CP-55,940 (0.2 nM) to the wells of a 96-well polypropylene plate. Non-specific binding was measured in wells containing WIN 55,212 (10 uM). The plate was covered and incubated for 90 minutes at 30° C. The contents were then aspirated onto a Packard Unifilter GF/C filter bottom plate prewet with 0.5% polyethyleneimine. The wells of the polypropylene plate were rinsed and aspirated seven times with a 0.9% saline-0.5% Tween 20 solution. The Unifilter plate was dried, scintillation cocktail was added to each well and the counts representing binding were quantitated in a TopCount scintillation counter.
(§3) For compounds tested, an IC50 binding value was obtained from percent inhibition studies in which various test concentrations were used. The binding value was calculated by linear regression.
(§4) For compounds without an IC50 binding value, the percent inhibition (%) was obtained at a test concentration of ^(1)10 μM, ^(2)1 μM, ^(3)0.2 μM, ^(4)0.003 μM, ^(5) represents an average value.

In assay [2] the target is T2, CB2 receptor (Homo sapiens, UniProt P34972).
T2 construct: expressed in transfected cells; host or cells: SK-N-MC cells, stably transfected with pcDNA3 CB-2 (human)
Briefly: Binding assay for CB2 ([3H]-CP-55,940 displacement, SK-N-MC membranes). To be noted: for IC50: Cannabinoid CB2 Receptor Binding IC50, radioligand CP-55,940 0.2 nM, SK-N-MC membranes. The method, then:
as §1, §2, §3, §4

For assay [3], the target named is T1, human CB1 receptor. Briefly: Functional cell-based CRE β-gal assay, CB1 (adenylate cyclase activity). To be noted: single test concentration 10 μM (footnote 1). The text has this: (§5) The CB1 and CB2 receptors are G-protein coupled receptors (GPCR), which influence cell function via the Gi-protein. These receptors modulate the activity of intracellular adenylate cyclase, which in turn produces the intracellular signal messenger cyclic-AMP (cAMP).
(§6) At baseline, or during non-ligand bound conditions, these receptors are constitutively active and tonically suppress adenylate cyclase activity. The binding of an agonist causes further receptor activation and produces additional suppression of adenylate cyclase activity. The binding of an inverse agonist inhibits the constitutive activity of the receptors and results in an increase in adenylate cyclase activity.
(§7) By monitoring intracellular adenylate cyclase activity, the ability of compounds to act as agonists or inverse agonists can be determined.
(§8) Test compounds were evaluated in SK-N-MC cells which, using standard transfection procedures, were stably transfected with human cDNA for pcDNA3-CRE β-gal and pcDNA3 CB1 receptor (human) or pcDNA3 CB2 receptor (human). By expressing CRE β-gal, the cells produced β-galactosidase in response to CRE promoter activation by cAMP. Cells expressing CRE β-gal and either the human CB1 or CB2 receptor will produce less β-galactosidase when treated with a CB1/CB2 agonist and will produce more β-galactosidase when treated with a CB1/CB2 inverse agonist.
(§9) The cells were grown in 96-well plates under standard cell culture conditions at 37° C. in a 5% CO2 atmosphere. After 3 days, the media was removed and a test compound in media (wherein the media was supplemented with 2 mM L-glutamine, […] sodium pyruvate, 0.1% low fatty acid FBS (fetal bovine serum) and antibiotics) was added to the cell. The plates were incubated for 30 minutes at 37° C. and the plate cells were then treated with forskolin over a 4-6 hour period, then washed and lysed. The β-galactosidase activity was quantitated using commercially available kit reagents (Promega Corp. Madison, Wis.) and a Vmax Plate Reader (Molecular Devices, Inc).
(§10) The change in β-galactosidase activity was determined by setting a vehicle treated cell's activity value at 100% and expressing the β-galactosidase activity measured in a corresponding compound treated cell as a percent of the vehicle treated cell activity.
The EC50 value for functional activity for compounds tested was calculated by linear regression and was obtained from studies in which varying compound concentrations were used. Data provided for certain compounds is represented by percent change (%) in functional activity at a single test concentration: ^(1)10 μM and ^(2)1 μM.

The target of assay [4] is T2, CB2 receptor. Briefly: Functional cell-based CRE β-gal assay, CB2 (adenylate cyclase activity).
From the text: as §5, §6, §7, §8, §9
For cells expressing CRE β-gal and the CB2 receptor, CB2 agonists reduced β-galactosidase activity in a dose-dependent manner and CB2 inverse agonists increase β-galactosidase activity in a dose-dependent manner.
as §10
The EC50 value for functional activity for compounds tested was calculated by linear regression and was obtained from studies in which varying compound concentrations were used.
The value of 29% for Compound 5 represents change in functional activity and was obtained from a study in which one compound concentration was used.

The target of assay [5] is T2, CB2 receptor. Briefly: Modified functional cell-based assay (Beta-Glo luminescence), CB2 agonist. The method, then:
Additional functional activity studies were performed with minor modifications. Beta galactosidase activity was quantified using the luminescent Beta-Glo Assay System (Promega Corp. Madison, Wis.) and an Orion Microplate Luminometer (Berthold Detection Systems, Oak Ridge, Tenn.). The EC50 values were calculated using GraphPad Prism and a four parameter logistic equation.

Setting [6] is: read-out: CB1 receptor binding percent inhibition.

T1 sequence (P21554 whole entry): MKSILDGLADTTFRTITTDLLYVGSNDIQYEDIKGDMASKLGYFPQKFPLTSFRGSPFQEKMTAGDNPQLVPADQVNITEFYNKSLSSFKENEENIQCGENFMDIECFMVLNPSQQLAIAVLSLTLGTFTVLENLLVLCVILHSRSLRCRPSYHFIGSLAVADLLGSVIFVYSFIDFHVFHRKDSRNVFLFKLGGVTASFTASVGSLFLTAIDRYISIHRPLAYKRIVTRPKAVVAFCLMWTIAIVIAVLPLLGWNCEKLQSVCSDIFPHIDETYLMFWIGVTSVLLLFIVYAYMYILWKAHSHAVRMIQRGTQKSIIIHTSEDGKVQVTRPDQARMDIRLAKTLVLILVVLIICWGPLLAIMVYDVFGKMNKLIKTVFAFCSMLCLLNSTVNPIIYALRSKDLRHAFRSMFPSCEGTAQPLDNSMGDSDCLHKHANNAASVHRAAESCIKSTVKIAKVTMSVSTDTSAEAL
T2 sequence (P34972 whole entry): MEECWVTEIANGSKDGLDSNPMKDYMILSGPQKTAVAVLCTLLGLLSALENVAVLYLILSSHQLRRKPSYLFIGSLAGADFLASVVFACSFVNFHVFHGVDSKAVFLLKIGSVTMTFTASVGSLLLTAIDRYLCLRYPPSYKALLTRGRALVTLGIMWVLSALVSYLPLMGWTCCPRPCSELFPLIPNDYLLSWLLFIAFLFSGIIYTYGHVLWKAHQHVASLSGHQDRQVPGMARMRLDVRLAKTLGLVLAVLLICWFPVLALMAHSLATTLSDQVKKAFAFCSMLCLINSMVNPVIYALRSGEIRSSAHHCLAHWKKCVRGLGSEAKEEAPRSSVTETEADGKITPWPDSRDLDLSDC

One may read the inhibition as the share of the control response that was lost under treatment. In general, IC50 refers to the concentration that inhibits the measured activity by half. Read a low IC50 as higher potency. For `CC(NC(=O)c1nn(C2CCCC2)c2c1CCCCCC2)C12CC3CC(CC(C3)C1)C2` (stereo not drawn) [Cpd 5, 1-cyclopentyl-4,5,6,7,8,9-hexahydro-1H-cyclooctapyrazole-3-carboxylic acid (1-adamantan-1-yl-ethyl)-amide], the inhibition at 10 µM at human CB1 receptor [1] (setting [6]) is 47%. This molecule also gave a half-inhibitory concentration (IC50) at CB2 receptor [2] of 100 nM. In addition, the “CB1 receptor percent change in functional activity” value (“CB1 receptor percent change” for short) on human CB1 receptor [3] is given as “^(1)10%”. Further, the “CB2 receptor change in functional activity” value on CB2 receptor [4] (one compound concentration) is reported as 29%.
By EC50 is commonly meant the concentration at which the effect is half-maximal. Low readings indicate higher potency in that assay, high ones lower potency in that assay. In the case of `CC(NC(=O)c1nn(C2CCCCC2)c2c1CCCCCC2)C12CC3CC(CC(C3)C1)C2` (stereo not drawn) [Cpd 6, 1-cyclohexyl-4,5,6,7,8,9-hexahydro-1H-cyclooctapyrazole-3-carboxylic acid (1-adamantan-1-yl-ethyl)-amide], the IC50 on human CB1 receptor [1] is 300 nM; at CB2 receptor [2], 0.6 nM and 0.7 nM. For the same molecule, the inhibition at 1 µM was 86% at human CB1 receptor [1] (test concentration 1 μM (footnote 2), read-out: CB1 receptor binding percent inhibition) and 91% at CB2 receptor [2] (read-out: CB2 receptor binding percent inhibition). Besides, a half-maximal response on CB2 receptor [4] (EC50) required 29 nM.
Take `CC12CCC(C1)C(C)(C)C2NC(=O)c1nn(C2CCCCC2)c2c1CCCCCC2` (stereo not drawn) [Cpd 1, 1-cyclohexyl-4,5,6,7,8,9-hexahydro-1H-cyclooctapyrazole-3-carboxylic acid (1,3,3-trimethyl-bicyclo[2.2.1]hept-2-yl)-amide]: the IC50 is 40 nM at human CB1 receptor [1]; 0.1 nM and 0.09 nM at CB2 receptor [2]. Moreover, the “CB1 receptor percent change” value at human CB1 receptor [3] is “^(1)−78%”. Also, the 50% effective concentration (EC50) at CB2 receptor [4] was found to be 1.6 nM.
The molecule `O=C(N[C@@H](CO)c1ccccc1)c1n[nH]c2c1CCCCC/C2=C\c1cccc(Cl)c1` [Cpd 31, (9E)-(3-chloro-benzylidene)-4,5,6,7,8,9-hexahydro-1H-cyclooctapyrazole-3-carboxylic acid [(1R)-2-hydroxy-1-phenyl-ethyl]-amide] came in with a 50% effective concentration (EC50) at CB2 receptor [5] of 18 nM.
For `O=C(NCC12CC3CC(CC(C3)C1)C2)c1nn(C2CCCC2)c2c1CCCCCC2` [Cpd 3, 1-cyclopentyl-4,5,6,7,8,9-hexahydro-1H-cyclooctapyrazole-3-carboxylic acid (adamantan-1-ylmethyl)-amide], on human CB1 receptor [1] (setting [6]), the inhibition at 10 µM worked out at 45%. On CB2 receptor [2], this molecule returned an IC50 of 20 nM. Also, the “CB1 receptor percent change” value at human CB1 receptor [3] is listed as “^(1)−6%”. This molecule had an EC50 at CB2 receptor [4] of 200 nM.
